Experimental data: patent US12410124B2 (priority 2019, dated 2025)

tested on: substantia nigra pp38; experiment: Substantia nigra pp38 protein expression in MPTP Parkinson's disease model mouse (immunofluorescence); format: in vivo; conditions: percentage of mean intensity of blank control group, gavage 21 days after MPTP modeling
Method: Neurotoxins can be used to establish PD animal models. Currently, 1-methyl-4-phenyl-1,2,3,6-tetrahydropyridine (MPTP) is the sole synthetic toxin which is recognized to induce PD symptoms in human and non-human primates and in mice. Using MPTP subacute modeling method, C57BL/6J male mice were intraperitoneally injected with MPTP 30 mg/kg, once a day for 5 consecutive days. The experiment animals were divided into blank control group, MPTP model group, and compound treatment group. For the […] compound treatment group, the compound was administrated by gavage for 21 consecutive days after the completion of modeling; for the MPTP model group, the normal saline was administrated by gavage for 21 consecutive days after the completion of modeling; and for the blank control group, the normal saline was first intraperitoneally injected for 5 days, and then administrated by gavage for 21 days.
The p38 mitogen-activated protein kinase (p38 MAPK) is expressed in both neurons and glial cells, and is the intersection point of neuron-glial cell network information regulations. The activation of p38 signaling pathway is an important initiator of neuronal degeneration, which continuously induces the apoptosis of dopaminergic neurons in multiple ways. It has become a research hotspot for the treatment of PD. Studies have shown that the protective mechanism of CAPE against the death of primary cultured cerebellar granule neurons induced by glutamate lies in inhibiting the activation of p38 phosphorylation and in turn inhibiting the activation of the caspase 3 apoptotic pathway to prevent neuronal apoptosis. Therefore, the MPTP-induced PD mouse model can be used to investigate the inhibitory effect of the target compounds on the activation of p38 phosphorylation on the overall animal level.
Half of experiment mice in each group were taken to separate the midbrain after perfusion and fixation. The tissue was trimmed, and the substantia nigra-striatum area was taken to prepare paraffin sections. The double immunofluorescence staining for TH and phosphorylated p38 was performed to observe the coexpression of TH and phosphorylated p38, for the statistics of the change in the phosphorylated p38 protein expression. The experiment included blank control group, MPTP model group, positive control group (caffeic acid phenethyl ester, CAPE), prototype control group (styryl sulfone compounds 3B, 3C, 3D, and 3G, whose structures are shown as above), and target compound group.

Row | Molecule | Expression (Immunofluorescence intensity %)
1 | CNC(=O)Oc1ccc(/C=C/S(=O)(=O)CC(Cl)c2ccc(Cl)c([N+](=O)[O-])c2)cc1O (stereo not drawn) [Compound E2-2, (E)-4-{2-[2-chloro-2-(4-chloro-3-nitrophenyl)ethylsulfonyl]ethenyl}-2-hydroxyphenyl-N-methylcarbamate] | 96.01 ± 10.37%
2 | O=S(=O)(/C=C/c1ccc(O)c(O)c1)Cc1ccc(Cl)cc1 [Compound 3D, (E)-4-{2-[(4-chlorophenyl)mesyl]ethenyl}benzene-1,2-diol, reference compound] | 114.68 ± 21.42%
3 | (E)-2-[(methylamino)methoxy]-4-{2-[1-(4′-nitro-[1,1′-biphenyl]-4-yl)ethylsulfonyl]ethenyl}phenylcarbamate [Compound M1-3] | 100.22 ± 14.12%
4 | O=S(=O)(/C=C/c1ccc(O)c(O)c1)Cc1ccc(C(F)(F)F)cc1 [Compound 3B, (E)-4-{2-[(4-trifluoromethylphenyl)mesyl]ethenyl}benzene-1,2-diol, reference compound] | 134.70 ± 31.07%
5 | C=CCOc1ccc(C/C=C/S(=O)(=O)/C=C/c2ccc(OC(C)=O)c(OC(=O)N(CC=C)CC=C)c2)cc1 [Compound K1-4, 4-{(E)-2-[(E)-3-(4-allyloxyphenyl)prop-1-en-1-yl]sulfonylethenyl}-2-(N,N-diallylcarbamoyloxy)phenyl acetate] | 100.80 ± 5.48%
6 | COc1ccc(CC(=O)Oc2ccc(/C(C)=C/S(=O)(=O)/C=C/c3ccc(OC(=O)N(C)C)c(O[Si](C)(C)CCl)c3)cc2)cc1 [Compound P1-7, 4-{(E)-1-[(E)-3-(chloromethyldimethylsiloxy)-4-(N,N-dimethylcarbamoyloxy)styrylsulfonyl]prop-1-en-2-yl}phenyl-2-(4-methoxyphenyl) acetate] | 77.29 ± 13.06%
7 | CC(Br)C(Br)COc1cc(/C=C/S(=O)(=O)CCc2ccc(OCC(F)(F)F)cc2)ccc1OC(=O)Nc1ccsc1 (stereo not drawn) [Compound K1-3, (E)-2-(2,3-dibromobutoxy)-4-{2-[4-(2,2,2-trifluoroethoxy)phenylethylsulfonyl]ethenyl}phenyl-N-(thien-3-yl)carbamate] | 73.08 ± 18.10%
8 | CC(C)N(c1ccc(CCS(=O)(=O)/C=C/c2ccc(OC(=O)N(C)c3ccc(I)cc3)c(OCCOCc3ccccc3)c2)cc1)C(C)C [Compound A1-3, (E)-2-(2-benzyloxyethoxy)-4-{2-[4-(N,N-diisopropylamino)phenylethylsulfonyl]ethenyl}phenyl-N-(4-iodophenyl)-N-methylcarbamate] | 58.19 ± 12.07%
9 | COCCN(C)C(=O)Oc1cc(/C=C/S(=O)(=O)CCc2cccc(-c3ccc(C)o3)c2)ccc1OC(C)=O [Compound J1-4, (E)-2-[N-(2-methoxyethyl)-N-methylcarbamoyloxy]-4-{2-[3-(5-methylfur-2-yl)phenylethylsulfonyl]ethenyl}phenyl acetate] | 100.62 ± 13.35%
10 | CN(C)c1ccc(CC(=O)Oc2cc(/C=C/S(=O)(=O)C(Br)c3ccc(Cc4ccc(N(C)C)cc4)cc3)ccc2OC(=O)N2CCCC2C(F)(F)F)cc1 (stereo not drawn) [Compound M1-5] | 87.45 ± 11.05%
11 | CCN(CC)C(=O)Oc1ccc(/C=C/S(=O)(=O)Cc2ccc(C(F)(F)F)cc2)cc1OC(=O)N(CC)CC [Compound B1-1, (E)-4-{2-[(4-trifluoromethylphenyl)mesyl]ethenyl}-1,2-phenylenebis(diethylcarbamate)] | 76.35 ± 21.90%
12 | COc1cc(/C=C/S(=O)(=O)Cc2cc(OC)c(OC)c(OC)c2)ccc1OC(=O)N(c1ccccc1)c1ccccc1 [Compound K3-3, (E)-2-methoxy-4-{2-[(3,4,5-trimethoxyphenyl)mesyl]ethenyl}-phenyl-N,N-diphenylcarbamate] | 111.17 ± 9.62%
13 | CC[Si](CC)(Oc1ccc(C(Cl)S(=O)(=O)/C=C/c2ccc(OC(=O)N3CC(C)OC(C)C3)c(OC(=O)c3cccc(Cl)c3OC)c2)cc1)c1ccccc1 (stereo not drawn) [Compound R1-5, (E)-4-{2-[4-(diethylphenylsiloxy)phenylchloromesyl]ethenyl}-2-(3-chloro-2-methoxybenzoyloxy)phenyl-2,6-dimethylmorpholine-4-carboxylate] | 101.93 ± 7.44%
14 | Cc1ccc(S(=O)(=O)Oc2ccc(CS(=O)(=O)/C=C/c3ccc(OS(=O)(=O)c4ccc(C)cc4)c(OC(=O)N(C)S(=O)(=O)c4ccc(C)cc4)c3)cc2)cc1 [Compound S6-6, (E)-2-(N-methyl-N-p-tosylcarbamoyloxy)-4-{2-[(4-p-tosyloxyphenyl)mesyl]ethenyl}phenyl p-toluenesulfonate] | 105.30 ± 10.08%
15 | Cc1ccc(N2CCN(C(=O)Oc3ccc(/C=C/S(=O)(=O)CCCC(c4ccc(OC(=O)CN(C)C)cc4)N(C)C)cc3OC(=O)N(C)c3ccccc3)CC2)cc1 (stereo not drawn) [Compound P1-1, (E)-4-{2-[4-(dimethylamino)-4-(4-(N,N-dimethylglycyloxy)phenyl)butylsulfonyl]ethenyl}-2-(N-methyl-N-phenylcarbamoyloxy)phenyl-4-(p-methylphenyl)piperazine-1-carboxylate] | 99.55 ± 8.46%
16 | CCN(CC)C(=O)Oc1ccc(/C=C/S(=O)(=O)Cc2ccc(Cl)cc2)cc1OC(=O)N(CC)CC [Compound D1-1, (E)-4-{2-[(4-chlorophenyl)mesyl]ethenyl}-1,2-phenylenebis(diethylcarbamate)] | 57.50 ± 15.33%
17 | CC(C)(C)c1ccc(CS(=O)(=O)/C=C/c2ccc(O)c(O)c2)cc1 [Compound 3G, (E)-4-{2-[(4-t-butylphenyl)mesyl]ethenyl}benzene-1,2-diol, reference compound] | 118.25 ± 10.60%
18 | CCN(C)C(=O)Oc1ccc(/C=C/S(=O)(=O)CC(c2ccc(-c3ccc(OC)c(OC)c3)cc2)[N+](=O)[O-])cc1OC(=O)N(C)CC (stereo not drawn) [Compound M1-1, (E)-4-{2-[2-(3′,4′-dimethoxy-[1,1′-biphenyl]-4-yl)-2-nitroethylsulfonyl]ethenyl}-1,2-phenylenebis(N-ethyl-N-methylcarbamate)] | 98.35 ± 6.93%
19 | CCN(CC)C(=O)Oc1ccc(/C=C/S(=O)(=O)Cc2ccc(C(C)(C)C)cc2)cc1OC(=O)N(CC)CC [Compound G1-1, (E)-4-{2-[(4-t-butylphenyl)mesyl]ethenyl}-1,2-phenylenebis(diethylcarbamate)] | 82.16 ± 8.10%
20 | CC(=O)Oc1ccc(/C=C/S(=O)(=O)Cc2c(F)c(F)c(F)c(F)c2F)cc1OC(=O)NC(=O)c1ccc([N+](=O)[O-])c(C)c1 [Compound D5-4, (E)-2-[N-(3-methyl-4-nitrobenzoyl)carbamoyloxy]-4-{2-[(perfluorophenyl)mesyl]ethenyl}phenyl acetate] | 103.25 ± 15.27%
21 | O=C(/C=C/c1ccc(O)c(O)c1)OCCc1ccccc1 [Positive control group, caffeic acid phenethyl ester, reference compound] | 139.72 ± 25.32%
